Where “and” joins values, the source holds several entries; their conditions need not be identical. Equal values may be shown once. Read-outs that look alike come from different tables or passages of the source.
Tests used:
K562 cells [1] = assay: MTT colorimetric assay, cytotoxicity on sensitive K562; format: cell-based; details: for IC50: MTT, 48 h, K562
Procedure: (§1) This colorimetric technique is based on the ability of viable cells to capture MTT and reduce it through the mitochondrial enzyme succinic dehydrogenase to its insoluble form, formazan crystals. […] After this time, the plate was centrifuged at 2000 rpm for 10 min, and 100 µL of DMSO was added to dissolve the formazan crystals formed. Absorbance (Abs) was read at a wavelength of 595 nm in an iMark microplate reader (Bio-Rad, USA).

P-gp [2] = molecular target: T1, P-gp (Homo sapiens, UniProt P08183); assay: Rhodamine 123 intracellular accumulation assay in K562/Dox (flow cytometry); details: for FAR (fluorescence activity ratio): Rho123, K562/Dox; for MEC (minimum effective concentration): Rho123 accumulation
T1 sequence (P08183 whole entry): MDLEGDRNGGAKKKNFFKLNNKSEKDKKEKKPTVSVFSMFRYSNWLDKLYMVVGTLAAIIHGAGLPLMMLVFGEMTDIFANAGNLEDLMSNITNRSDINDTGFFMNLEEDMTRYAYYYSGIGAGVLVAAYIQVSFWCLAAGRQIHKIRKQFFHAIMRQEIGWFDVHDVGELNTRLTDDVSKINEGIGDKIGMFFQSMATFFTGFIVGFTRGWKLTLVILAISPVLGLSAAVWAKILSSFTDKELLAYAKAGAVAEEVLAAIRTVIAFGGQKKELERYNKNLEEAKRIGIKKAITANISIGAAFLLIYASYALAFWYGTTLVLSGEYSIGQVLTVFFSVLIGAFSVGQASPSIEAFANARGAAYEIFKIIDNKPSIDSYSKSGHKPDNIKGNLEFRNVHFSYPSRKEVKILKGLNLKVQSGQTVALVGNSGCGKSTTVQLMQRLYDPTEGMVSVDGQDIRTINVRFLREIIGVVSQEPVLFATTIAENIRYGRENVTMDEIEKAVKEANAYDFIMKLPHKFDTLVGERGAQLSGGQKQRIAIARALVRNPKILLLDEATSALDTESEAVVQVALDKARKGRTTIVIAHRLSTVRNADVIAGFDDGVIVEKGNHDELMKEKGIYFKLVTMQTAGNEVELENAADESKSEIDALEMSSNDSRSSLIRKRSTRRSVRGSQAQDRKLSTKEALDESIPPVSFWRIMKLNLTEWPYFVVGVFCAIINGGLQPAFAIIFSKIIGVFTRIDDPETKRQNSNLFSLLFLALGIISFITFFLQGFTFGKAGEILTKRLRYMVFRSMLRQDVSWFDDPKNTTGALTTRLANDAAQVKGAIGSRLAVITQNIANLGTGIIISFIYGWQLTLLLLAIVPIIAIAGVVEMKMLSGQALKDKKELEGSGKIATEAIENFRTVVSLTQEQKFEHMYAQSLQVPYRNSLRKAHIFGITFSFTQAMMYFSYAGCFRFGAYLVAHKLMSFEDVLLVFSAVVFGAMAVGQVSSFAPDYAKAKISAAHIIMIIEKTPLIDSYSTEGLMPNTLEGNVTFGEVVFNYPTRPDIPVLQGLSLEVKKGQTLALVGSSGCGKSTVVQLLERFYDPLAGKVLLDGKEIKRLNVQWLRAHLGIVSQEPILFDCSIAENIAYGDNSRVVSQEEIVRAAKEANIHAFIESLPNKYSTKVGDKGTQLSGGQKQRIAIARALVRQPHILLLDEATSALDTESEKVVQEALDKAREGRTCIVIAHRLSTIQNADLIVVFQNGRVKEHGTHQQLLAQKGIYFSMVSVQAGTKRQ

K562/Dox cells = assay: MTT colorimetric assay, cytotoxicity on resistant K562/Dox; format: cell-based; details: K562/Dox, MTT; for IC50: 48 h, read-out: IC50 K562/Dox
Procedure: as §1, with “crystals. The target compounds dissolved in DMSO (0.5% v/v as final concentration which was non-toxic to cells) at a maximum concentration of 50 µM were exposed to 5 × 10^4 cells distributed in a 96-well plate and incubated for 48 h.” for “crystals.”, “USA). The percentages of cytotoxicity were determined as compared to DMSO treated control cells, which were considered 100% viable as showing the same level of growth as the untreated cells.” for “USA).”

K562 cells [3] = assay: Rhodamine 123 intracellular accumulation assay in K562 (flow cytometry); details: Rho123, K562, 3.12 µM
P-gp [4] = molecular target: T1, P-gp; assay: Doxorubicin intracellular accumulation assay in K562/Dox (flow cytometry)
P-gp [5] = molecular target: T1, P-gp
P-gp [6] = molecular target: T1, P-gp; design: MDR phenotype mainly characterized by the overexpression of ABCB1/P-gp; endogenous in cells; host or cells: K562/Dox (formerly Lucena 1), drug-selected and kept under 60 nM Dox; parental K562 used as the low-P-gp control; details: cited from earlier work

Row | SMILES | IC50 (K562 cells [1]; Homo sapiens, K562, 48 h) [µM] | MEC (minimum effective concentration) (P-gp [2]; K562/Dox) | IC50 (K562/Dox cells; Homo sapiens, K562, 48 h) [µM] | FAR (fluorescence activity ratio) (P-gp [2]; 50 µM) | further results
1 | C=C(C)[C@@H]1CC[C@]2(C(=O)NCc3cc(OC)c(OC)c(OC)c3)CC[C@]3(C)[C@H](CC[C@@H]4[C@@]5(C)CC[C@H](O)C(C)(C)[C@@H]5CC[C@]43C)[C@@H]12 [Compound 4] | 19.7 ± 0.59 | 25 µM and 25.0 µM | 34.4 ± 2.59 | – | toxicity (K562 cells [1]; 50 μM, K562, MTT): more than 55%; FAR (fluorescence activity ratio) (P-gp [2]; 12.50 µM): 1.04 ± 0.01; fold less active against P-gp than carbamate 6d (P-gp [2]; ratio of MEC values, Rho123): 32; toxicity (K562/Dox cells; 50 μM): more than 55%
2 | C=C(C)[C@@H]1CC[C@]2(COC(=O)c3ccc(OC)cc3)CC[C@]3(C)[C@H](CC[C@@H]4[C@@]5(C)CC[C@H](O)C(C)(C)[C@@H]5CC[C@]43C)[C@@H]12 [Compound 3a] | > 50 | > 50 µM | > 50 | 0.88 ± 0.02 | Rho123 accumulation / anti-P-gp activity (P-gp [2]; K562/Dox, highest concentrations tested (50 or 6.25 µM)): did not induce statistically significant Rho123 accumulation
3 | COc1cc2c(cc1OC)CN(CCc1ccc(NC(=O)c3cc(OC)c(OC)cc3NC(=O)c3cnc4ccccc4c3)cc1)CC2 [Tariquidar, tariquidar, reference compound] | 2.4 | 0.78 µM | 2.2 | – | FAR (fluorescence activity ratio) (K562 cells [3]): 0.82 ± 0.11; IC50 (K562 cells [1]): 2.38 ± 0.32 µM; FAR (fluorescence activity ratio) (P-gp [2]; 0.78 µM): 1.12 ± 0.03; MEC, Dox accumulation (P-gp [4]): 0.39 µM; FAR (fluorescence activity ratio) (P-gp [5]; 1.56 µM): 1.22 ± 0.05; FAR (fluorescence activity ratio) (P-gp [5]; 3.12 µM): 1.14 ± 0.03; IC50 (K562/Dox cells): 2.25 ± 0.28 µM
4 | C=C(C)[C@@H]1CC[C@]2(COC(=O)c3cc(OC)c(OC)c(OC)c3)CC[C@]3(C)[C@H](CC[C@@H]4[C@@]5(C)CC[C@H](O)C(C)(C)[C@@H]5CC[C@]43C)[C@@H]12 [Compound 3b] | > 50 | 50 µM | > 50 | 1.06 ± 0.003 | FAR (fluorescence activity ratio) (P-gp [2]; 25 µM): 0.94 ± 0.03
5 | CC1(C)CC[C@]2(C(=O)O)CC[C@]3(C)C(=CC[C@@H]4[C@@]5(C)CC[C@H](O)C(C)(C)[C@@H]5CC[C@]43C)[C@@H]2C1 [oleanolic acid] | – | – | – | – | effective concentration, P-gp inhibition (P-gp [6]): 2 µM

Reference: publication PMC10762177, “Novel betulin derivatives as multidrug reversal agents targeting P-glycoprotein” (Scientific Reports, 2024)
